Test [1] concerns the target T1, CDK9/Cyclin K (Homo sapiens, UniProt P50750).
T1 construct: His; purchased Invitrogen
Kind of test: LanthaScreen Eu Kinase Binding Assay, CDK9/Cyclin K. The note with it: tracer 236, read-out: CDK9/Cyclin K (activity range), Kd. The method, boiled down:
(§1)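 TR-FRET displacement of an Alexa Fluor 647 active-site tracer, detected with a Eu anti-GST antibody, over an 8-point 1:3 compound series. Tracer was set at its Kd (30 nM for CDK2/Cyclin A, CDK7 and CDK9/Cyclin T1; 35 nM for CDK9/Cyclin K). Read after 1 h at room temperature; Kd was fitted from sigmoidal curves.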

The target of test [2] is T2, CDK1/CyclinB1 (Homo sapiens, UniProt P06493).
T2 construct: purchased Carna
Briefly: Lance Ultra KinaSelect Assay, CDK1. The test is classed as biochemical. As to conditions: ATP 20 μM; read-out: CDK1 LANCE assay (activity range), IC50. Here is the method: (§2) 2. Measurement of half maximal inhibitory concentration to CDKs This protocol describes how the Lance Ultra KinaSelect Assay was performed to determine half maximal inhibitory concentration (1050) of compounds of general formula (I) and CDK/Cyclin complexes. The principle behind this enzymatic assay is based upon the phosphorylation of the ULight-Peptide Substrat. It is detected by using a specific
(§3) EU-labeled anti-phospho peptide antibody. The binding of the Eu-labeled anti-phospho peptide antibody to the phosphorylated ULight labeled peptide gives rise to a FRET-signal. Binding of an inhibitor to the kinase prevents phosphorylation of the ULight-MBP Substrat, resulting in a loss of FRET.
(§4) The compounds of general formula (I) summarized in Table 5 were diluted from a 10 mM DMSO stock solution 1:10 in a total volume of 15 μL DMSO. This compound predilution was then serial diluted 1:3 over 8 steps in DMSO and briefly spun down. Each compound solution was now diluted 1:20 in Enzymatic Buffer (HEPES: 50 mM, pH: 7.5; MgCl2: 10 mM; EGTA: 1 mM; DTT: 2 mM; Tween-20: 0.01%), mixed thoroughly and spun down. For every sample, 2 μL of the diluted compound were mixed with 6 μL CDK/Cyclin/Substrat solution and 2 μL ATP solution in a well of a small volume 384 well plate (Corning Incorporated, Corning, N.Y., USA; order no. 3673). The CDK/Cyclin was diluted to the appropriate concentration (see Table 3) and the ATP concentration was adjusted to its […] for the CDK/Cyclin, which was 3 μM for CDK2/Cyclin A, 20 μM for CDK1/Cyclin B1, 25 μM for CDK7/Cyclin H and CDK9/Cyclin T1, 55 μM for CDK6/Cyclin D3, 90 μM for CDK4/Cyclin D1 and 125 μM for CDK9/Cyclin K. For negative controls, in each well 2 μL of DMSO solution (1% final DMSO assay concentration) was mixed with 6 μL substrate solution (50 nM ULight MBP final assay concentration) and 2 μL ATP solution (appropriate final concentration see Table 3). For positive controls, in each well 2 μL of DMSO solution (1% final DMSO assay concentration) was mixed with 6 μL CDK/Cyclin/Substrat (appropriate final concentration see Table 3) and 2 μL Tracer ATP solution (appropriate final concentration see Table 3). Positive and negative controls were calculated from at least 8 different sample wells. The 384 well plates were mixed in a Teleshaker plate mixer (Beckman Coulter, Brea, Calif., USA) at 2000 rpm for 40 sec, and incubated for 1 h at room temperature. Before reading, 10 μL the detection buffer (Lance Detection Buffer 1×; EDTA: […]; Eu-Anti-P-MBP: see Table 3) was added. The FRET signal was measured at 340 nm excitation, 665 nm and 615 nm emission (for the kinase tracer and LanthaScreen Eu-AB, respectively) with an Envision spectrophotometer (Perkin Elmer, Waltham, Mass., USA) with 50 μs delay and 300 μs integration time. IC50 values were determined from the sigmoidal dose response curves with the software Quattro Workflow (Quattro GmbH, Munich, Germany).

Test [3] concerns the target T3, CDK2/CyclinA (Homo sapiens, UniProt P24941).
T3 construct: GST; purchased Proqinase
Kind of test: Lance Ultra KinaSelect Assay, CDK2. The class given is biochemical. As to conditions: ATP 3 μM; read-out: CDK2 LANCE assay (activity range), IC50. How it is done: as §2, §3, §4

The target of test [4] is T4, CDK6/CyclinD3 (Homo sapiens, UniProt Q00534).
T4 construct: purchased Carna
Briefly: Lance Ultra KinaSelect Assay, CDK6. The class given is biochemical. The note with it: ATP 55 μM; read-out: CDK6 LANCE assay (activity range), IC50. How it is done: as §2, §3, §4
In general terms: Time-resolved FRET reads energy transfer from a long-lived donor to a nearby acceptor.

Test [5] deals with T3, CDK2/CyclinA. Briefly: LanthaScreen Eu Kinase Binding Assay, CDK2. As to conditions: tracer 236, read-out: CDK2 (activity range), Kd. The method, boiled down:
as §1

The structures appear in SMILES notation.

Among the data in US9226929B2, “Pharmaceutically active disubstituted triazine derivatives” (Bayer Intellectual Property GMBH, priority 2011, dated 2016) are Kd and IC50 values, retold here.

T2 sequence (P06493 whole entry): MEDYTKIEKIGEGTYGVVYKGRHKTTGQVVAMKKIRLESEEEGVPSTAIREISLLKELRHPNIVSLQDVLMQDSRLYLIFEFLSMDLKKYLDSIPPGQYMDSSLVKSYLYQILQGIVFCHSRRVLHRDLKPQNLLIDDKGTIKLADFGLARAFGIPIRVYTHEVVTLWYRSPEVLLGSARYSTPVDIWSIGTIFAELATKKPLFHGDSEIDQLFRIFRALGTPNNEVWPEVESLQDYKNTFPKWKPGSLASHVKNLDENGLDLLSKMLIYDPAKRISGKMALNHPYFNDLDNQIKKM
T2 sequence (P14635 whole entry partner): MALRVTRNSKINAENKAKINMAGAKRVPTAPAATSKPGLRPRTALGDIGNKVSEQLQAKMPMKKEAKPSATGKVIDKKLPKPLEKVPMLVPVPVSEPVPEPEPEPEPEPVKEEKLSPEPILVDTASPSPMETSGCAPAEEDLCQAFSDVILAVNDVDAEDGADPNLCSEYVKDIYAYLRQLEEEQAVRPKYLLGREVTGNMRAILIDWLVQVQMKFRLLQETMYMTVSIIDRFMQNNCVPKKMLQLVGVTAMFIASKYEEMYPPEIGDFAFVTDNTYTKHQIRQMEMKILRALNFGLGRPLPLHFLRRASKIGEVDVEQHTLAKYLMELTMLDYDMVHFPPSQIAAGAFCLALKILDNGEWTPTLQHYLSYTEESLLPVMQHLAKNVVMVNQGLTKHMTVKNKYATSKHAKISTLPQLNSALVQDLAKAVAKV
T4 sequence (Q00534 whole entry): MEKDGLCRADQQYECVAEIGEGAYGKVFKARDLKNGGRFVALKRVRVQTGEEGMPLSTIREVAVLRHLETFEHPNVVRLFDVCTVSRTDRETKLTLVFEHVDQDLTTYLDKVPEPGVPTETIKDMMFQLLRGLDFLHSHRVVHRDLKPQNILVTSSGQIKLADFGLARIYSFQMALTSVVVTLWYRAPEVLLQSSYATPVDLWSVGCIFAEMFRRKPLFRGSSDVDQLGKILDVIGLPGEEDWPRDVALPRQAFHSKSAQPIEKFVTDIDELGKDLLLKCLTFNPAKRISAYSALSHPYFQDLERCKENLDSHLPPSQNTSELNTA
T4 sequence (P30281 whole entry partner): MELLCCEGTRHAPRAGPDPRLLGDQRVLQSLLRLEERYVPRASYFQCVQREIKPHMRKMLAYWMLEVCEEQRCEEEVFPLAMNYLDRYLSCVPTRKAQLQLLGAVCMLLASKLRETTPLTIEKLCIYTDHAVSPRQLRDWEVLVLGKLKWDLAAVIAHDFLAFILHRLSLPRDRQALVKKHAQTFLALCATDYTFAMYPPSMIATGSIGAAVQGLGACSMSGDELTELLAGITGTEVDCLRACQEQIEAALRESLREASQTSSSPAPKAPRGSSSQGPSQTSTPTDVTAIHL
T1 sequence (P50750 whole entry): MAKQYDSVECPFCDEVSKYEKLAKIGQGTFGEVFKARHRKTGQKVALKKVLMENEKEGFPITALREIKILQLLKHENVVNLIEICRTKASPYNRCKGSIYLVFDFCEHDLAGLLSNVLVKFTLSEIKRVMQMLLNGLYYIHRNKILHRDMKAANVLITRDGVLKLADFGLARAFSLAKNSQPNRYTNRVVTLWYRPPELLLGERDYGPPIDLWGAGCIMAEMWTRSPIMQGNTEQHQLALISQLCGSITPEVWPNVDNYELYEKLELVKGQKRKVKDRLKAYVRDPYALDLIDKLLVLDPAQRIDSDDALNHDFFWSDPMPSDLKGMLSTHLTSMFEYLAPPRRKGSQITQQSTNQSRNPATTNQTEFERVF
T1 sequence (O75909 1-357 isoform O75909-1 partner): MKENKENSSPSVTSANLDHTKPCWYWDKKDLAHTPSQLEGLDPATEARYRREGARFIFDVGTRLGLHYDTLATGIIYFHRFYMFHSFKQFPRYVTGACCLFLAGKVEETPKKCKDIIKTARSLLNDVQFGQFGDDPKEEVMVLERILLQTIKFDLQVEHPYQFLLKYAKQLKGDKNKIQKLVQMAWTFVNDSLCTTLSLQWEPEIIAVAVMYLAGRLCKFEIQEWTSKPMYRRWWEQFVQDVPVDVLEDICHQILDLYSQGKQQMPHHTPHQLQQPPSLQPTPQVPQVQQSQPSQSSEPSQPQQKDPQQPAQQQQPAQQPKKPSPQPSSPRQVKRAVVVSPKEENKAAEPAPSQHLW

As to `NS(=O)(=O)Cc1cccc(Nc2ncnc(N3CCCC3c3ccccc3)n2)c1` (racemic) [Compound B33, rac-3-[(4-(2-Phenylpyrrolidin-1-yl)-1,3,5-triazin-2-yl)amino]-benzenemethanesulfonamide], the Kd in test [1] is < 0.1 µM. Also, the IC50 (as a rule, the concentration that inhibits the measured activity by half) in test [2] is 1 to 10 µM; in test [3] it was > 10 µM; in test [4], > 10 µM.
Regarding `NS(=O)(=O)Cc1cccc(Nc2ncnc(N3CCCCC3)n2)c1` [Compound B1, 3-[(4-(Piperidin-1-yl)-1,3,5-triazin-2-yl)amino]benzenemethane sulfonamide], the Kd in test [1] is 0.1 to 1 µM; in test [5] it was > 10 µM. In addition, the IC50 in test [2], in test [3] and in test [4] was > 10 µM throughout.
Consider `COC[C@H]1CCCN1c1ncnc(Nc2cccc(CS(N)(=O)=O)c2)n1` [Compound B17, (R)-3-[(4-(2-(Methoxymethyl)pyrrolidin-1-yl)-1,3,5-triazin-2-yl)amino]benzenemethanesulfonamide], for which the Kd lay in the range of 0.1 to 1 µM in test [1] and 1 to 10 µM in test [5]. Also, the IC50 in test [2] was 1 to 10 µM; in test [3], 1 to 10 µM; in test [4], > 10 µM.
As for `COC(=O)[C@H]1CCCN1c1ncnc(Nc2cccc(CS(N)(=O)=O)c2)n1` [Compound B21, (R)-Methyl 1-[4-((3-(Sulfamoylmethyl)phenyl)amino)-1,3,5-triazin-2-yl]pyrrolidine-2-carboxylate], the Kd in test [1] lay in the range of 0.1 to 1 µM; in test [5], 1 to 10 µM.
Turning to `NS(=O)(=O)Cc1cccc(Nc2ncnc(N3CCc4ncccc4C3)n2)c1` [Compound B38, 3-[(4-(7,8-Dihydro-1,6-naphthyridin-6(5H)-yl)-1,3,5-triazin-2-yl)amino]-benzenemethanesulfonamide], the Kd in test [1] was < 0.1 µM; in test [5], 0.1 to 1 µM. Also, the 50% inhibitory concentration (IC50) in test [2] is 0.1 to 1 µM; in test [3], 0.1 to 1 µM; in test [4], > 10 µM.
In the case of `NS(=O)(=O)Cc1cccc(Nc2ncnc(N3CCc4nc[nH]c4C3)n2)c1` [Compound B44, 3-[(4-(6,7-Dihydro-3H-imidazo[4,5-c]pyridin-5(4H)-yl)-1,3,5-triazin-2-yl)amino]benzenemethanesulfonamide], the Kd in test [1] and in test [5] was < 0.1 µM throughout.
Consider `NS(=O)(=O)Cc1cccc(Nc2ncnc(N3CCc4ncsc4C3)n2)c1` [Compound B45, 3-[(4-(6,7-Dihydrothiazolo[5,4-c]pyridin-5(4H)-yl)-1,3,5-triazin-2-yl)amino]benzenemethanesulfonamide], for which the Kd in test [5] was < 0.1 µM. Moreover, the IC50 in test [3] was < 0.1 µM.
`NS(=O)(=O)Cc1cccc(Nc2ncnc(N3CCCn4nccc43)n2)c1` [Compound B47, 3-[(4-(6,7-Dihydropyrazolo[1,5-a]pyrimidin-4(5H)-yl)-1,3,5-triazin-2-yl)amino]benzenemethanesulfonamide]: the Kd in test [1] and in test [5] was < 0.1 µM in each case. For the same molecule, the 50% inhibitory concentration (IC50) in test [2] is 0.1 to 1 µM; in test [3], < 0.1 µM; in test [4], 1 to 10 µM.
Take `NS(=O)(=O)Cc1cccc(Nc2ncnc(N3Cc4cn[nH]c4C3)n2)c1` [Compound B51, 3-[(4-(Pyrrolo[3,4-c]pyrazol-5(1H,4H,6H)-yl)-1,3,5-triazin-2-yl)amino]-benzenemethanesulfonamide]: the Kd in test [1] is < 0.1 µM; in test [5], 1 to 10 µM. In addition, the values for the half-maximal inhibitory concentration (IC50) in test [2], in test [3] and in test [4] were 1 to 10 µM, 0.1 to 1 µM and > 10 µM, respectively.
